Measurements as given in article PMC8201479, “Trisubstituted Pyrrolinones as Small-Molecule Inhibitors Disrupting the Protein–RNA Interaction of LIN28 and Let-7” (ACS Medicinal Chemistry Letters, 2021).
Like-named read-outs stand apart in the source and are kept apart here.

T1: LIN28–let-7 interaction (Homo sapiens, UniProt Q9H9Z2)
T1 construct: Purified LIN28A (residues 16–187) was incubated at a concentration of 200 nM; His-tag (cleaved yes); made in house; host or cells: Escherichia coli BL21(DE3)
T1 sequence (Q9H9Z2 16-187): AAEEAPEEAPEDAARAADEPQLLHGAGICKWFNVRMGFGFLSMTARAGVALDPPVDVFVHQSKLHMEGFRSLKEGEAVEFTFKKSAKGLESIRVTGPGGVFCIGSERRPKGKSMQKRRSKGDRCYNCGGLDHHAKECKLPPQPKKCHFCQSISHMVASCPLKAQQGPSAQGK

T2: LIN28–let-7 complex (Homo sapiens, UniProt Q9H9Z2)
T2 construct: Purified LIN28A (residues 16–187) was incubated at a concentration of 200 nM; His-tag (cleaved yes); made in house; host or cells: Escherichia coli BL21(DE3)
T2 sequence (Q9H9Z2 16-187): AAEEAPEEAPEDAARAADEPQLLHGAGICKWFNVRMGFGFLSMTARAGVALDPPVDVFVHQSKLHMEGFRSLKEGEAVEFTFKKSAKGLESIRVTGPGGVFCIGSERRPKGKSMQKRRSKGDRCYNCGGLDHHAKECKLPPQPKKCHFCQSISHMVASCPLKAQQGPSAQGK

T3: LIN28A (16-187), untagged (human, UniProt Q9H9Z2 16-187)
T3 sequence: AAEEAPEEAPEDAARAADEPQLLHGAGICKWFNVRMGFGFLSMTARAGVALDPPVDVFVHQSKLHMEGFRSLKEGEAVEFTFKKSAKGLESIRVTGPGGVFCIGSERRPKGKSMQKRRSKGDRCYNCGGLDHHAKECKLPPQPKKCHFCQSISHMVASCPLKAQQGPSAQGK


What was measured:
LIN28–let-7 interaction [1] = molecular target: T1, LIN28–let-7 interaction; experiment: Fluorescence polarization (FP) assay, LIN28A (residues 16–187) and FAM-labeled preE-let-7f-1; assay type: binding; details: for IC50: Table 1, quadruplicate, eight concentrations, read-out: IC50, LIN28–let-7 inhibitory activity; for FP, Average (mP): raw data Table S3, four replicates
LIN28–let-7 interaction [2] = molecular target: T1, LIN28–let-7 interaction; experiment: as above; assay type: binding
Experimental: Protein expression and purification.
19 vector and overexpressed in Escherichia coli BL21(DE3). The culture was incubated at 37 °C until
the absorbance at 600 nm (OD600) reached 0.5–0.7. IPTG was added to a final concentration of
300 µM, and overnight induction was performed at 18 °C. Cells were harvested by centrifugation.
The bacterial pellet was resuspended in lysis buffer (50 mM NaH2PO4, pH 7.5, 300 mM NaCl,
0.1 mM PMSF) and lysed using a Microfluidizer (Microfluidics) . A fresh portion of 0.1 mM PMSF
and Triton X-100 (1% final concentration) were added. The lysate was cleared by ultra centrifugation
at 30000 xg and 4 °C for 1 h. The protein purification was performed using immobilized nickel
300 mM NaCl and 5 % glycerol. Gradient elution was performed with a maximum of 0.5 M imidazole.
Subsequently, the affinity tag was cleaved using His6 -TEV-protease and the protease and unspecific
binders were eliminated by a second nickel affinity chromatography. After protein concentration
LIN28A containing fractions were concentrated and applied to a High Load Superdex 75 pg 16/600
column (GE Healthcare) with gel-filtration buffer (30 mM NaH2PO4, pH 7.5, 50 mM NaCl, 5%
glycerol, 2 mM β-ME). The purified protein was concentrated and stored at -80 °C until further
Fluorescence polarization. The fluorescence polarization assay was performed in black low volume
IC50 measurements were performed with three technical
minutes with compound concentrations ranging from 0.3 nM to 100 µM in FP assay buffer (20 mM
Tris, pH 7, 100 mM NaCl, 5 mM MgCl2, 2 mM glutathione (reduced), 0.1 % NP-40). Subsequently,
FAM-labeled preE-let-7f-1 (mus musculus) ([…]-
FAM, synthesized by IDT) was added to a final concentration of 2 nM. Fluorescence polarization
(§1) was detected after incubation at room temperature using a TECAN Spark plate reader. Half maximal
inhibitory concentrations (IC50) were determined using GraphPad Prism 7. […]

LIN28–let-7 complex = molecular target: T2, LIN28–let-7 complex; experiment: Electrophoretic mobility shift assay (EMSA); assay type: binding; details: compound concentrations up to 75 µM
Experimental: as §1
inhibitory concentrations (IC50) were determined using GraphPad Prism 7.
Compound screening. High throughput screening was performed in low volume 384 well plates
(Corning 4514) with 30 µM compound, 40 nM LIN28A, and 2 nM preE-let-7f-1-FAM in FP assay
buffer. Compounds were transferred with an ECHO 520 liquid handler and protein and RNA were
added with a multidrop dispenser. Protein and RNA were added stepwise with a 30 min incubation
period in between. FP was detected after a final incubation of 15 min with an Envision plate reader
and fluorescence was measured with a Paradigm plate reader. A reaction without LIN28 served as a
negative control and one without compound was used as a positive control. The software Quattro
Workflow (Quattro Research GmbH) was used for the analysis of screening data.
Electrophoretic mobility shift assay. EMSA was used as a secondary assay to validate FP-assay hit
molecules. Purified LIN28A (residues 16–187) was incubated with compound and 5 U recombinant
ribonuclease inhibitor (Takara Bio) in EMSA reaction buffer (50 mM Tris (pH 7.5), 100 mM NaCl,
10 mM β-mercaptoethanol, 50 µM ZnCl2, 2 % DMSO, 0.01 % Tween 20, 12 % glycerol) for 2 hours
at room temperature. Subsequently, preE-let-7f-1-Cy3 (mus musculus) (GGGGUAGUGAUUUUAC
CCUGUUUAGGAGAU-Cy3, purchased from IDT) was added to a final concentration of 5 nM and
a reaction volume of 50 µL. The final concentration of LIN28A was 10 nM and compound
concentrations up to 75 µM were used. The reaction mixtures were incubated for a further 15 minutes
and 10 µL loading dye (40 % glycerol, 1.5x TAE) was added. 10 µL of each reaction was separated
in an 8 % polyacrylamide TAE gel at 4 °C and 220 V for 1 h using 0.25x TAE as running buffer. Cy3
fluorescence was detected with a ChemiDoc M P (Bio-Rad) and 2 minutes of exposure time.
Thermal shift assay. Thermal stability of the cold shock domain construct LIN28 A (residues 16–
126) with and without compound was monitored using a NanoTemper Prometheus NT.48 nano -

LIN28 [3] = tested on: LIN28; parameters: method as in PMID 27668966; details: reported value; cited from earlier work
LIN28 [4] = tested on: LIN28; parameters: method as in PMID 27548809; details: reported value; read-out: IC50 (ELISA); cited from earlier work
[5] = molecular target: T3, LIN28A (16-187), untagged; experiment: competition (fluorescence polarization); competes with 2 nM FAM-preE-let-7f-1; FP: 20 mM Tris pH 7, 100 mM NaCl, 5 mM MgCl2, 2 mM GSH, 0.1% NP-40 (200 nM LIN28A, 2 nM RNA in IC50 assays); EMSA: 50 mM Tris pH 7.5, 100 mM NaCl, 10 mM beta-ME, 50 uM ZnCl2, 2% DMSO, 0.01% Tween 20, 12% glycerol, 2 h, room temperature; details: protein: recombinant; tags: none (His-tag cleaved by TEV); stem loop
[6] = starting from a maximum concentration of 60 μM
[7] = text and figures, C-labels = library sample, PH-labels = in-house resynthesized, read-out: IC50 in the FP assay

Row | IC50 (LIN28–let-7 interaction [1]; [6]) [µM] | FP, Average (mP) (LIN28–let-7 interaction [1]; 0.041 μM compound) | FP, Average (mP) (LIN28–let-7 interaction [1]; 0.123 μM compound) | FP, Average (mP) (LIN28–let-7 interaction [1]; 0.368 μM compound) | FP, Average (mP) (LIN28–let-7 interaction [1]; 1.103 μM compound) | FP, Average (mP) (LIN28–let-7 interaction [1]; 3.125 μM compound) | FP, Average (mP) (LIN28–let-7 interaction [1]; 9.375 μM compound) | FP, Average (mP) (LIN28–let-7 interaction [1]; 29.688 μM compound) | FP, Average (mP) (LIN28–let-7 interaction [1]; 59.375 μM compound) | Molecule | further results
1 | 12 | 117.25 | 110.90 | 115.50 | 113.50 | 89.73 | 88.63 | 73.03 | 53.40 | O=C(C1=C(O)C(=O)N(c2ccc(O)c(C(=O)O)c2)C1c1ccc(-c2nccs2)cc1)c1ccccc1 (centres unmarked) [C879/PH-34] | IC50 (LIN28–let-7 interaction [2]; [7]): < 30 µM
2 | 6 | 111.50 | 113.50 | 115.75 | 112.00 | 91.63 | 55.98 | 41.63 | 45.53 | O=C(O)c1ccc(C2C(C(=O)c3ccccc3)=C(O)C(=O)N2c2ccc(O)c(C(=O)O)c2)cc1 (centres unmarked) [C880/PH-39] | IC50 (LIN28–let-7 interaction [2]; [7]): < 30 µM
3 | – | – | – | – | – | – | – | – | – | O=C(O)c1ccc(N2C(=O)C(O)=C(C(=O)c3ccc(Br)cc3)C2c2ccc(-c3nccs3)cc2)cc1 (centres unmarked) [C899] | IC50 (LIN28–let-7 interaction [2]): > 100 µM
4 | – | – | – | – | – | – | – | – | – | O=C(O)c1cccc(N2C(=O)C(O)=C(C(=O)c3ccc(Br)cc3)C2c2ccc(-c3nccs3)cc2)c1 (centres unmarked) [C903] | IC50 (LIN28–let-7 interaction [1]; starting from 30 μM, extrapolated based on the observed IC50 curves): > 100 µM; activity in the FP assay (LIN28–let-7 interaction [2]): FP-inactive; inhibition of the LIN28–let-7 complex in EMSA (LIN28–let-7 complex): did not show activity
5 | – | 115.00 | 116.25 | 113.50 | 112.00 | 104.83 | 108.50 | 96.03 | 79.35 | O=C(O)c1ccc(C2C(C(=O)c3ccccc3)=C(O)C(=O)N2c2ccc(O)cc2)cc1 (centres unmarked) [PH-36] | IC50 (LIN28–let-7 interaction [1]; starting from a maximum of 60 μM, extrapolated based on the observed IC50 curves): > 100 µM; activity in the FP assay (LIN28–let-7 interaction [2]): inactive
6 | 16 | 113.00 | 113.25 | 117.75 | 113.25 | 101.00 | 86.53 | 50.30 | 49.00 | O=C(O)c1ccc(C2C(C(=O)c3ccccc3)=C(O)C(=O)N2c2ccc(C(=O)O)c(O)c2)cc1 (centres unmarked) [PH-38] | –
7 | 5 | 110.50 | 109.50 | 109.75 | 98.88 | 79.00 | 55.18 | 37.25 | 33.68 | O=C(C1=C(O)C(=O)N(c2ccc(O)c(C(=O)O)c2)C1c1ccc(-c2nccs2)cc1)c1ccco1 (centres unmarked) [PH-43] | –
8 | 12 | 96.70 | 118.00 | 115.00 | 107.75 | 92.95 | 82.98 | 63.53 | 54.00 | COc1ccc(C(=O)C2=C(O)C(=O)N(c3ccc(O)c(C(=O)O)c3)C2c2ccc(-c3nccs3)cc2)cc1OC (centres unmarked) [PH-44] | –
9 | – | – | – | – | – | – | – | – | – | CC1(C)Oc2cc(N3CCN(C(=O)OCc4ccccc4)CC3)c([N+](=O)[O-])cc2-c2c1cnn2-c1ccc(C(=O)O)cc1 [SB1301, reference compound] | IC50 (LIN28–let-7 interaction [2]; [7]): 27 µM; IC50 (LIN28 [3]): 4 µM
10 | – | – | – | – | – | – | – | – | – | CC(=O)N(C)c1cccc(-c2ccc3nnc(C)n3n2)c1 [compound 1632] | IC50 (LIN28 [4]): 8 µM
11 | – | – | – | – | – | – | – | – | – | GGGGUAGUGAUUUUACCCUGUUUAGGAGAU (structured_RNA) [preE-let-7f-1, unlabeled] | IC50 [5]: 0.055 µM
